Test results taken from publication PMC10615177 (ACS infectious diseases, 2023).
Like-named read-outs stand apart in the source and are kept apart here.

How the values were obtained:
M. smegmatis = M. smegmatis cell growth inhibition; type: cell-based, Mycobacterium smegmatis; conditions: read-out: Ms IC50; M. smegmatis
M. tuberculosis HN878 = M. tuberculosis HN878 growth inhibition; type: cell-based, Mycobacterium tuberculosis; conditions: for Less activity than SQ109 against M. tuberculosis: MtbHN878, MtErdman and MtH37Rv; for IC50: read-out: Mtb HN878 IC50, dose-response curves; for Mtb HN878 MIC: visual inspection
M. tuberculosis Erdman = M. tuberculosis Erdman growth inhibition; type: cell-based, Mycobacterium tuberculosis
M. tuberculosis H37Rv = M. tuberculosis H37Rv growth inhibition; type: cell-based, Mycobacterium tuberculosis
[1] = system: M. abscessus smooth variant; assay: microbe, parasite or virus in culture; type: cell-based
[2] = system: M. abscessus rough variant; assay: microbe, parasite or virus in culture; type: cell-based
E. coli = E. coli growth inhibition; type: cell-based, Escherichia coli; conditions: for IC50: read-out: Ec IC50
[3] = system: T. brucei bloodstream forms; assay: T. brucei bloodstream form growth inhibition; type: cell-based, Trypanosoma brucei; conditions: read-out: T. brucei IC50; bloodstream forms
[4] = system: T. cruzi Dm28c epimastigotes; assay: T. cruzi epimastigote growth inhibition; type: cell-based, Trypanosoma cruzi; conditions: read-out: T. cruzi IC50 (EPI); epimastigotes
[5] = system: T. cruzi Dm28c intracellular amastigotes; assay: T. cruzi intracellular amastigote inhibition; type: cell-based, Trypanosoma cruzi; conditions: read-out: T. cruzi IC50 (PAR); intracellular amastigotes in U2OS host cells
[6] = system: L. donovani promastigotes; assay: L. donovani promastigote growth inhibition; type: cell-based, Leishmania donovani; conditions: read-out: L. donovani IC50; promastigotes
[7] = system: L. mexicana promastigotes; assay: L. mexicana promastigote growth inhibition; type: cell-based, Leishmania mexicana; conditions: read-out: L. mexicana IC50; promastigotes
[8] = system: Plasmodium falciparum asexual blood stages; assay: P. falciparum asexual blood stage; type: cell-based; conditions: read-out: PfABS IC50 (μM ± S.E.); asexual blood stages
[9] = biological target: M. tuberculosis MmpL3 (MtMmpL3) (Mycobacterium tuberculosis, UniProt P9WJV5); assay: Surface plasmon resonance binding to MmpL3; conditions: for koff: 1:1 Langmuir binding model
[10] = DSC of DMPC bilayers with inhibitor; type: physicochemical; conditions: for Tm (main transition) / ΔH / ΔT1/2: 10 wt % inhibitor, PBS pH 7.4, heating
[11] = DSC of DSPG bilayers with inhibitor; type: physicochemical; conditions: for Tm (main transition) / ΔH / ΔT1/2: 10 wt % inhibitor, PBS pH 7.4, heating; for Broadening of main transition peak ΔΤ1/2 compared to pure DSPG / Decrease of Tm compared to DSPG alone: heating
[12] = system: HepG2 (human hepatocellular carcinoma) cells; assay: HepG2 cell line viability
[13] = Rat liver microsome stability; conditions: rat liver microsomes
[14] = Mice liver microsome stability; conditions: mice microsomes
[15] = Human liver microsome stability
U2OS host cells = assay: U2OS host cell growth inhibition; conditions: read-out: T. cruzi CC50 (U20S)
Bacillus subtilis = assay: B. subtilis growth inhibition; type: cell-based; conditions: read-out: Bs IC50
[16] = system: M. abscessus strain PIPD1^R1 (A309P mutation in MmpL3); conditions: cited from earlier work
[17] = read-out: KD, 1:1 model, 1:1 binding model, from ratio of rate constants
[18] = read-out: KD, 2-state, two-state model, from rate constants

Chain of M. tuberculosis MmpL3 (MtMmpL3) (P9WJV5 whole entry): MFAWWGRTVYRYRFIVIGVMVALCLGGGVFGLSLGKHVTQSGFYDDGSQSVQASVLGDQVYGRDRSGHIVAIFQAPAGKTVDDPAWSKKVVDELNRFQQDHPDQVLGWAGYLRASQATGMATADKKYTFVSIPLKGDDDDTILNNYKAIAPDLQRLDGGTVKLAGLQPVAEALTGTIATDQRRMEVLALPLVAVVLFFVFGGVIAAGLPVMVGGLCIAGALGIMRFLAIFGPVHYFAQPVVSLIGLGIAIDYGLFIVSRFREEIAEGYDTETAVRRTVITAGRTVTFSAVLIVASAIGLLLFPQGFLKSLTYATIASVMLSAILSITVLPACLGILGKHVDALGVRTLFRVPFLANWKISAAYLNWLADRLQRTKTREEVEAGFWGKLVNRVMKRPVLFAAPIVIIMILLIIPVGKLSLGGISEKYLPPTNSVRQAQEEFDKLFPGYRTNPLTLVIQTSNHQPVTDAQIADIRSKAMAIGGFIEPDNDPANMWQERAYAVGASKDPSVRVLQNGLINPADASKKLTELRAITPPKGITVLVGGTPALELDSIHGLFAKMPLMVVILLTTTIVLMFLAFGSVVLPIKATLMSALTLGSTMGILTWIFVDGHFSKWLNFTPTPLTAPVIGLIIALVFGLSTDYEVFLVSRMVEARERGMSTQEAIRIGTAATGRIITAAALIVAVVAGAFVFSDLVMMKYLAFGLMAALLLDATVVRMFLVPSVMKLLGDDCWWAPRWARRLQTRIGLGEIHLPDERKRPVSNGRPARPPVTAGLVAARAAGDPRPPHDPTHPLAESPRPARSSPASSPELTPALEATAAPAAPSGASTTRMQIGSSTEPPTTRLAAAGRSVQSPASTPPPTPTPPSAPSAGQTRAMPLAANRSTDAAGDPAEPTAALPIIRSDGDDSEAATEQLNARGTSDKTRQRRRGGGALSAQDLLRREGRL

SMILES	IC50 (M. smegmatis)	IC50 (M. tuberculosis HN878)	Mtb HN878 MIC (M. tuberculosis HN878)	Mtb Erdman MIC (M. tuberculosis Erdman)	Mtb H37Rv MIC (M. tuberculosis H37Rv)	Ma(S) MIC [1]	Ma(R) MIC [2]	IC50 [3]	IC50 [4]	IC50 [5]	IC50 [6]	koff [9]	Kd [9, 17]	Kd [9, 18]	ka1 ([9]; two-state model)	ka2 ([9]; two-state model)	kd1 ([9]; two-state model)	kd2 ([9]; two-state model)	Tm (main transition) [10]	ΔH [10]	further results
CC(C)=CCCC(C)=CCNCCNC1(C)C2CC3CC(C2)CC1C3 (stereo not drawn) [Compound 8b, N-(3,7-dimethylocta-2,6-dien-1-yl)-N´-(2-methyl-2-adamantanyl)ethane-1,2-diamine]	4400 ± 500 nM	860 ± 60 nM	0.8 µM	3.5 µM	3.5 µM	43 µM	22 µM	2100 ± 20 nM	3500 ± 1000 nM	770 ± 200 nM	2000 ± 1000 nM	0.6882 s⁻¹	188000 nM	248000 nM	4958 M⁻¹ s⁻¹	0.01084 s⁻¹	1.613 s⁻¹	0.03486 s⁻¹	17.9 °C	6.12 kcal/mol	IC50 higher than SQ109, MtHN878 (M. tuberculosis HN878): ~ 3 fold; Less activity than SQ109 against M. tuberculosis (M. tuberculosis HN878): 2–4 fold; IC50 (E. coli): 25000 nM; IC50 [7]: 430 ± 80 nM; IC50 [8]: 0.66 ± 0.18 µM; ΔT1/2 [10]: 2.2 °C; Decrease of Tm compared to DMPC without inhibitor ([10]; heating): ca. 5.6 °C; Tm (main transition) [11]: 50.5 °C; ΔH [11]: 12.7 kcal/mol; ΔT1/2 [11]: 2.0 °C; Broadening of main transition peak ΔΤ1/2 compared to pure DSPG [11]: 0.2–1.6 °C; Decrease of Tm compared to DSPG alone [11]: 3–4 °C; HepG2 % viability @ 20 μM [12]: 100%; Intrinsic clearance rate (CLint) relative to SQ109 [13]: about twice as large; Intrinsic clearance rate (CLint) relative to SQ109 [14]: essentially the same; Intrinsic clearance rate (CLint) relative to SQ109 ([15]; human liver microsomes): about twice as large; Stability relative to SQ109 (% remanent at 60 minutes) ([15]; human, mice and rat liver microsomes): 2–4 x; CC50 (U2OS host cells): 2800 ± 700 nM
CCCCC1(NCCNCC=C(C)CCC=C(C)C)C2CC3CC(C2)CC1C3 (stereo not drawn) [Compound 8e, N-(3,7-dimethylocta-2,6-dien-1-yl)-N´-(2-butyladamantan-2-yl)ethane-1,2-diamine]	2500 nM	2500 ± 200 nM	3 µM	9.7 µM	12.9 µM	6.2 µM	6.2 µM	370 ± 20 nM	2500 ± 1000 nM	840 ± 500 nM	4000 ± 400 nM	0.3888 s⁻¹	97000 nM	108000 nM	5151 M⁻¹ s⁻¹	0.009897 s⁻¹	0.7008 s⁻¹	0.03763 s⁻¹	15.7 °C	5.83 kcal/mol	Activity against M. abscessus higher than SQ109 [1]: 4–8 fold; MIC against M. abscessus [1]: 5.8 to 6.2 µM; IC50 (Bacillus subtilis): 540 nM; IC50 (E. coli): 7800 nM; IC50 [8]: 0.27 ± 0.04 µM; ΔT1/2 [10]: 2.2 °C; Decrease of Tm compared to DMPC without inhibitor ([10]; heating): ~7.8 °C; Tm (main transition) [11]: 49.0 °C; ΔH [11]: 9.2 kcal/mol; ΔT1/2 [11]: 3.6 °C; Broadening of main transition peak ΔΤ1/2 compared to pure DSPG [11]: 2.7 °C; Decrease of Tm compared to DSPG alone [11]: ~ 5 °C; HepG2 % viability @ 2 μM ([12]; 2 μM): 83%; HepG2 % viability @ 20 μM [12]: 50%; CC50 (U2OS host cells): 1700 ± 1000 nM
CC(C)=CCCC(C)=CCNCCNC1(Cc2ccccc2)C2CC3CC(C2)CC1C3 (stereo not drawn) [Compound 8g, N-(3,7-dimethylocta-2,6-dien-1-yl)-N´-(2-benzyladamantan-2-yl)ethane-1,2-diamine]	6000 nM	2000 ± 500 nM	1.6 µM	6.1 µM	6.1 µM	5.8 µM	5.8 µM	850 ± 90 nM	6600 ± 1000 nM	920 ± 60 nM	6100 ± 60 nM	0.3999 s⁻¹	69000 nM	74000 nM	6462 M⁻¹ s⁻¹	0.006528 s⁻¹	0.5715 s⁻¹	0.03248 s⁻¹	16.6 °C	5.16 kcal/mol	Less activity than SQ109 against M. tuberculosis (M. tuberculosis HN878): 2–4 fold; Activity against M. abscessus higher than SQ109 [1]: 4–8 fold; MIC against M. abscessus [1]: 5.8 to 6.2 µM; IC50 (Bacillus subtilis): 590 nM; IC50 (E. coli): 130000 nM; ΔT1/2 [10]: 10 °C; Broadening of main transition peak ΔΤ1/2 compared to pure DMPC ([10]; heating): 9.6 °C; Decrease of Tm compared to DMPC without inhibitor ([10]; heating): ~6.9 °C; Tm (main transition) [11]: 48.0 °C; ΔH [11]: 13.3 kcal/mol; ΔT1/2 [11]: 1.7 °C; Broadening of main transition peak ΔΤ1/2 compared to pure DSPG [11]: 0.2–1.6 °C; Decrease of Tm compared to DSPG alone [11]: ~ 5 °C; HepG2 % viability @ 20 μM [12]: 100%; CC50 (U2OS host cells): 2000 ± 400 nM
CC(C)=CCCC(C)=CCNCCNC1(c2ccccc2)C2CC3CC(C2)CC1C3 (stereo not drawn) [Compound 8h, N-(3,7-dimethylocta-2,6-dien-1-yl)-N´-(2-phenyl-adamantan-2-yl)ethane-1,2-diamine]	5800 nM	2300 ± 200 nM	1.6 µM	13 µM	13 µM	12 µM	6 µM	1300 ± 300 nM	7300 ± 2000 nM	600 ± 40 nM	1400 ± 1000 nM	0.465 s⁻¹	115000 nM	136000 nM	25900 M⁻¹ s⁻¹	0.00526 s⁻¹	4.085 s⁻¹	0.03247 s⁻¹	14.7 °C	7.12 kcal/mol	Ec IC50 (E. coli): No inhibition; IC50 [8]: 0.42 ± 0.09 µM; ΔT1/2 [10]: 2.7 °C; Decrease of Tm compared to DMPC without inhibitor ([10]; heating): ~8.8 °C; Tm (main transition) [11]: 48.6 °C; ΔH [11]: 13.2 kcal/mol; ΔT1/2 [11]: 5.3 °C; Broadening of main transition peak ΔΤ1/2 compared to pure DSPG [11]: 4.4 °C; Decrease of Tm compared to DSPG alone [11]: ~ 5 °C; HepG2 % viability @ 20 μM [12]: 100%; Intrinsic clearance rate (CLint) relative to SQ109 [13]: about twice as large; Metabolism relative to SQ109 [13]: more rapidly metabolized; % remanent at 60 minutes relative to SQ109 [14]: same % remanent as SQ109 (8a); Intrinsic clearance rate (CLint) relative to SQ109 [14]: essentially the same; Intrinsic clearance rate (CLint) relative to SQ109 ([15]; human liver microsomes): about twice as large; Metabolism relative to SQ109 ([15]; human liver microsomes): more rapidly metabolized; CC50 (U2OS host cells): 3500 ± 1000 nM
Cc1ccccc1CN1CCC(O)(c2ccc(Cl)c(C(F)(F)F)c2)CC1 [PIPD1]																					Resistance (fold) ([16]; MmpL3 inhibitor resistance): 32–64 x; Resistance of strain PIPD1^R1 [16]: very high resistance
